{"source": "paper PMC8402619", "about": "(Viruses, 2021)", "key": {"[1]": {"test": "Renal clearance after 1 mg/kg intravenous, monkey", "assay_type": "in vivo, rhesus monkeys", "details": "rhesus monkey, 1 mg/kg intravenously"}, "[2]": {"test": "Plasma protein binding by equilibrium dialysis, human plasma", "assay_type": "in vitro ADME"}, "MRP3": {"target": "T1, MRP3 (Homo sapiens, UniProt O15438)", "T1 construct": "purchased Thermo Fisher Scientific; host or cells: Sf9", "T1 sequence (O15438 whole entry)": "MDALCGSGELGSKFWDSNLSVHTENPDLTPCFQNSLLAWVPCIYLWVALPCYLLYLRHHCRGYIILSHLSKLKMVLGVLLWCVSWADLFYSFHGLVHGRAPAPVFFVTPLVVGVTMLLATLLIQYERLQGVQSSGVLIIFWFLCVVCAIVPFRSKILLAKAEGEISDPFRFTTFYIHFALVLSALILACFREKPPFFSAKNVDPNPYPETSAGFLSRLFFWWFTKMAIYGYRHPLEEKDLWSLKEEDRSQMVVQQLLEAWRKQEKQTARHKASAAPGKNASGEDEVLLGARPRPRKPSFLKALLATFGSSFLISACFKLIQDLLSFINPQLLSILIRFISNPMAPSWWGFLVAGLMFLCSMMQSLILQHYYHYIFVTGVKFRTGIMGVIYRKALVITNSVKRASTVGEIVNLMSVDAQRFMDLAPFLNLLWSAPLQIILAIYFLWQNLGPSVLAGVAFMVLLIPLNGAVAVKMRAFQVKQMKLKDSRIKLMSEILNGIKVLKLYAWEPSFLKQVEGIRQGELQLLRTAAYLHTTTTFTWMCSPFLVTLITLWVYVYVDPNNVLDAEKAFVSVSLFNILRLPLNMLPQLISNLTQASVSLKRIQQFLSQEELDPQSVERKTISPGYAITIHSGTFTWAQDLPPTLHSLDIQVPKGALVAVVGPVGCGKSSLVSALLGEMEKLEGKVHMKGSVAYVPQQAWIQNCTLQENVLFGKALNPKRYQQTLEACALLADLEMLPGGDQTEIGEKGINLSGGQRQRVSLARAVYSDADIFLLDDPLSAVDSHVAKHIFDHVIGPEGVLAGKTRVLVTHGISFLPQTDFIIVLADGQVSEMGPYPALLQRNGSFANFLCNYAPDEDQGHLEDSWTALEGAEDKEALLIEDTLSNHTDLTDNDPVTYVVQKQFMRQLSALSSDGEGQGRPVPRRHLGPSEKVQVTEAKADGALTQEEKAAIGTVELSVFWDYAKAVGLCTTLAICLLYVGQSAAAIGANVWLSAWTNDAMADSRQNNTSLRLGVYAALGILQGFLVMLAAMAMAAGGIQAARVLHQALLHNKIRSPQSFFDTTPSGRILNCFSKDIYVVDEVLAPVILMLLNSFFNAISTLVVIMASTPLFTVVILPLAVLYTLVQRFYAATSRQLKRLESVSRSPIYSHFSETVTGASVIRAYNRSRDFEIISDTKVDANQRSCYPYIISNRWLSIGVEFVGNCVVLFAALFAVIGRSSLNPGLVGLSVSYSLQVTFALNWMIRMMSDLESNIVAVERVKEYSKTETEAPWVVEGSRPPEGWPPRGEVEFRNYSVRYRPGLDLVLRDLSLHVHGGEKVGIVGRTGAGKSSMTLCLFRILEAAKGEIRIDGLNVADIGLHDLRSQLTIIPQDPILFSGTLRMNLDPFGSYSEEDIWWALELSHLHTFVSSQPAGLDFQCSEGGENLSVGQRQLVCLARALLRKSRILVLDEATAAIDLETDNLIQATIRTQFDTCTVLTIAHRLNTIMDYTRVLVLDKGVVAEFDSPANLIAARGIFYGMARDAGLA", "test": "Inhibition of ATP-dependent probe uptake in Sf9 membrane vesicles", "assay_type": "in vitro ADME", "details": "MRP3-mediated ATP-dependent uptake of E217βG"}, "[3]": {"test": "Plasma protein binding by equilibrium dialysis, monkey plasma", "assay_type": "in vitro ADME", "details": "pH 7.4"}, "[4]": {"test": "Renal clearance after 1 mg/kg intravenous, rat", "assay_type": "in vivo, male Wistar-Hannover rats", "details": "1 mg/kg intravenously"}, "CYP2D6": {"target": "CYP2D6 (Homo sapiens, UniProt P10635)", "sequence (P10635 whole entry)": "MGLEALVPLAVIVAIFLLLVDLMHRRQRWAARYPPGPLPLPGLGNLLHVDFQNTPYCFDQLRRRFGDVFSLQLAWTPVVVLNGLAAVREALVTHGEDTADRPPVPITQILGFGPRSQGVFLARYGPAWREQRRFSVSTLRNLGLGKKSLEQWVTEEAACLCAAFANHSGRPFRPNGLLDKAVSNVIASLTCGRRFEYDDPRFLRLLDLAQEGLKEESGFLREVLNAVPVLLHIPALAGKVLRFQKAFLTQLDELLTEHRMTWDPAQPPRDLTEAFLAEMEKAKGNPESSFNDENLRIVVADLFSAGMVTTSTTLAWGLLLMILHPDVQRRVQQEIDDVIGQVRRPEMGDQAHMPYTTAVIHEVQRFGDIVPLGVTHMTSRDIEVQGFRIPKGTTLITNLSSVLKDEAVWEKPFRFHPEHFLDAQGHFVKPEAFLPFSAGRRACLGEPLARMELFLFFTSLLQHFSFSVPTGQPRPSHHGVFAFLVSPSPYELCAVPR", "test": "Reversible CYP inhibition in pooled human liver microsomes", "assay_type": "in vitro ADME"}, "BCRP": {"target": "T2, BCRP (Homo sapiens, UniProt Q9UNQ0)", "T2 sequence (Q9UNQ0 1-655)": "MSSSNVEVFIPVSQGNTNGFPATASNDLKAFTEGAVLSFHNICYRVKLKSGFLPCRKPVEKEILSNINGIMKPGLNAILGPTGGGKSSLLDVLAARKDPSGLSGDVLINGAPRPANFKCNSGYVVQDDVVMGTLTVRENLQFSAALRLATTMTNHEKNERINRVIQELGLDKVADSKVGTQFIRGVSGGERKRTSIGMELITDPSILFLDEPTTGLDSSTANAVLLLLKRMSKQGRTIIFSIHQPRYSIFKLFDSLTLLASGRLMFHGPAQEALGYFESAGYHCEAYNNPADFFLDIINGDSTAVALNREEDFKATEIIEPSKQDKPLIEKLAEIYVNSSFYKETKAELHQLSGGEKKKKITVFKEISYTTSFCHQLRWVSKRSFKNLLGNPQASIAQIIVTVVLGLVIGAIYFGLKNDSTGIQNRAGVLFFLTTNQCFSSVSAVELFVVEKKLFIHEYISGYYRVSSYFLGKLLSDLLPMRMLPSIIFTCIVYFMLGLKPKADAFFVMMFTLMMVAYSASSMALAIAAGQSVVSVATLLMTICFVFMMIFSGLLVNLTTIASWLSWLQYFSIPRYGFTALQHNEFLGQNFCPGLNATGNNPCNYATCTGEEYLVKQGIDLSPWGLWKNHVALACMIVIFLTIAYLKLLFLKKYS", "test": "Inhibition of BCRP-mediated methotrexate uptake in Sf9 membrane vesicles", "assay_type": "in vitro ADME", "set-up": "purchased Thermo Fisher Scientific; host or cells: Sf9"}, "[5]": {"test": "Plasma protein binding by equilibrium dialysis, rat plasma", "assay_type": "in vitro ADME", "details": "pH 7.4"}, "MATE2K": {"target": "T3, MATE2K (Homo sapiens, UniProt Q86VL8)", "T3 construct": "expressed in transfected cells; host or cells: MDCKII", "T3 sequence (Q86VL8 1-566 isoform Q86VL8-3)": "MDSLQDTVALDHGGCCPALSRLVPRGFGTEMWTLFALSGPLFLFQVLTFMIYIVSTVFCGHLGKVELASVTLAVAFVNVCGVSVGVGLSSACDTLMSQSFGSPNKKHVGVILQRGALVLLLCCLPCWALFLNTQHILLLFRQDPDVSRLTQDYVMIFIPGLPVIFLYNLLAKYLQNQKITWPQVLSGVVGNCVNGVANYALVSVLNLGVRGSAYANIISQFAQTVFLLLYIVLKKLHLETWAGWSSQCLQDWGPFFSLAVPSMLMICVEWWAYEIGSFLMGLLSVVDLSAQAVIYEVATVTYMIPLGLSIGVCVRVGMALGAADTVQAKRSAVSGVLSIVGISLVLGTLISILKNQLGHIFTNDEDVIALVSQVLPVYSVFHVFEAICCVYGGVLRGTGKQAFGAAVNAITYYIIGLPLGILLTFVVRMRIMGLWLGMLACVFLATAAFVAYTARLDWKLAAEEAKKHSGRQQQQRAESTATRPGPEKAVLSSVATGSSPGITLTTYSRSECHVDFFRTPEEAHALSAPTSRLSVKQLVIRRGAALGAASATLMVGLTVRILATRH", "test": "Islatravir uptake as substrate, MDCKII vs MDCKII-MATE2K cells", "assay_type": "in vitro ADME"}, "[6]": {"test": "Metabolism in human intestinal S9 fraction", "assay_type": "in vitro ADME", "details": "[3H]islatravir 5 µM, M4 the only metabolite detected"}, "MATE1": {"target": "T4, MATE1 (Homo sapiens, UniProt Q96FL8)", "T4 construct": "expressed in transfected cells; host or cells: CHO-K1", "T4 sequence (Q96FL8 1-570)": "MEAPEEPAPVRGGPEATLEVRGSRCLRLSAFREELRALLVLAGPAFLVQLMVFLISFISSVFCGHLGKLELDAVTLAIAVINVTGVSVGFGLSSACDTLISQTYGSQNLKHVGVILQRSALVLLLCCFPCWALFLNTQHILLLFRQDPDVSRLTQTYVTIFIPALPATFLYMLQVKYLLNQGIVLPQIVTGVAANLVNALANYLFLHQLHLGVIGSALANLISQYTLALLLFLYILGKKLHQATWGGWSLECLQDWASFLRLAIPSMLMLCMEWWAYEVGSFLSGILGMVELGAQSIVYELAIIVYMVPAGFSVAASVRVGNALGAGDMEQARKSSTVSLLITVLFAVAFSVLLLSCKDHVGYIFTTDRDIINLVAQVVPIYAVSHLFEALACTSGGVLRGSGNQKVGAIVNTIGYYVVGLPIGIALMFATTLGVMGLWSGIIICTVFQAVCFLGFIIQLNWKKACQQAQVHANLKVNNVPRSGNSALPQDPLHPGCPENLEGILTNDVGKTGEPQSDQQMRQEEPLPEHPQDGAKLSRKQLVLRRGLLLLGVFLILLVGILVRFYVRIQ", "test": "Inhibition of transporter-mediated probe uptake in CHO-K1-MATE1 cells", "assay_type": "in vitro ADME"}}, "data": [{"smiles": "C#C[C@]1(CO)O[C@@H](n2cnc3c(N)nc(F)nc32)C[C@@H]1O", "note": "[Islatravir, 4′-Ethynyl-2-fluoro-2′-deoxyadenosine]", "values": [{"measurement": "CL renal", "setting": "[1]; plasma and urine, iv, urine 0-24 h", "result": 8.7, "unit": "mL/min/kg"}, {"measurement": "Renal Excretion (% Total Plasma Clearance)", "setting": "[1]", "result": 51, "unit": "%"}, {"measurement": "concentration dependence of binding to plasma proteins", "setting": "[2]; 0.1 to 10 µM, all species tested", "result": "did not exhibit concentration dependence"}, {"measurement": "fraction unbound at 24 h, 0.1 µM", "setting": "[2]; pH 7.4, human plasma, 0.1 µM islatravir, ± standard deviation", "result": "0.96 ± 0.04"}, {"measurement": "IC50", "setting": "MRP3", "result": "> 100", "unit": "µM"}, {"measurement": "fraction unbound at 24 h, 0.1 µM", "setting": "[3]", "result": "> 0.84"}, {"measurement": "Renal Excretion (% Total Plasma Clearance)", "setting": "[4]", "result": 17, "unit": "%"}, {"measurement": "CL renal", "setting": "[4]; male, Wistar-Hannover, plasma and urine, iv, urine 0-24 h", "result": 11.5, "unit": "mL/min/kg"}, {"measurement": "DDI Potential", "setting": "CYP2D6; CYP2D6 reversible inhibition, FDA, EMA, PMDA guidance", "result": "Low risk"}, {"measurement": "Maximum Unbound Plasma Concentration (Imax,u) to Ki,u Ratio", "setting": "CYP2D6; CYP2D6 reversible, 60 mg, Cmax 1.01 µM, fu,p 0.96, Ki,u = IC50/2", "result": "<0.019", "unit": "µM"}, {"measurement": "IC50", "setting": "CYP2D6; reversible, CYP2D6 dextromethorphan O-demethylation, read-out: Islatravir IC50", "result": "> 100", "unit": "µM"}, {"measurement": "DDI Potential", "setting": "BCRP; BCRP inhibition, FDA, EMA, PMDA guidance", "result": "Low risk"}, {"measurement": "IC50", "setting": "BCRP; BCRP-mediated methotrexate uptake, read-out: Islatravir IC50", "result": "> 100", "unit": "µM"}, {"measurement": "Maximum Unbound Plasma Concentration (Imax,u) to IC50 Ratio", "setting": "BCRP; BCRP, 60 mg, Cmax 1.01 µM, fu,p 0.96", "result": "<0.010", "unit": "µM"}, {"measurement": "Intestinal Concentration (Igut) to IC50 Ratio", "setting": "BCRP; BCRP, Igut = 60 mg/250 mL = 818 µM", "result": "<8.2", "unit": "µM"}, {"measurement": "inhibition at 5 min, 100 µM", "setting": "BCRP; human, BCRP-containing Sf9 membrane vesicles, probe [3H]methotrexate, 100 µM islatravir, membrane vesicle assay", "result": 35, "unit": "%"}, {"measurement": "fraction unbound at 24 h, 0.1 µM", "setting": "[5]", "result": "> 0.84"}, {"measurement": "Islatravir Uptake Control Cells", "setting": "MATE2K; MATE2K row, MDCKII control cells, 2 µM [14C]islatravir, 20 min, mean ± SD, n = 3", "result": "3.12 ± 0.17", "unit": "pmole/10^6 Cells"}, {"measurement": "Conclusions", "setting": "MATE2K; MATE2K substrate assessment", "result": "Non-substrate"}, {"measurement": "Fold-Difference", "setting": "MATE2K; MATE2K, uptake into transporter-expressing cells to control cells, 20 min", "result": 1.14}, {"measurement": "Islatravir Uptake Transporter-Expressing Cells", "setting": "MATE2K; MDCKII-MATE2K, 2 µM [14C]islatravir, 20 min, mean ± SD, n = 3", "result": "3.56 ± 0.17", "unit": "pmole/10^6 Cells"}, {"measurement": "turnover", "setting": "[6]", "result": "low turnover"}, {"measurement": "IC50", "setting": "MATE1; MATE1, metformin uptake, read-out: Islatravir IC50", "result": "> 75", "unit": "µM"}, {"measurement": "Maximum Unbound Plasma Concentration (Imax,u) to IC50 Ratio", "setting": "MATE1; MATE1, 60 mg, Cmax 1.01 µM, fu,p 0.96", "result": "<0.013", "unit": "µM"}, {"measurement": "DDI Potential", "setting": "MATE1; MATE1 inhibition, FDA, EMA, PMDA guidance", "result": "Low risk"}]}]}
